Source: patent EP4721737A1, “USE OF PHARMACEUTICAL COMPOSITION COMPRISING COMPOUND HAVING BIS(AZANYLYLIDENE) SULFONYL STRUCTURE FOR TREATING ANEMIA-RELATED DISEASES” (Scinnohub Pharmaceutical Co., Ltd., priority 2023, dated 2024)

Assays:
recombinant human PKR = recombinant human PKR (Homo sapiens, UniProt P30613); assay: pyruvate kinase (PKR) activity test, activation of recombinant enzyme (fluorescence kit); format: biochemical
Protocol: To test the activation effect of the compound of the present disclosure on recombinant human PKR.
3.1 A recombinant human PKR enzyme solution was prepared at a concentration of 60 ng/well (a 20 µL reaction system), and 5 µL of the solution was added into each well of a black transparent bottom 384-well plate.
3.2 Compound solutions were prepared at different concentrations, with the final concentrations of 1000/300/100 nM (containing 1% DMSO). Each 5 µL of the compound solution was added into the plate in step 3.1 and mixed well. The plate was incubated at room temperature for 10 min.
3.3 A reaction system was prepared according to the instructions of a kit (as shown in the table below), and 10 µL of the reaction system was added into each well of the 384-well plate, and mixed uniformly with the solution in step 3.2.
3.4 The 384-well plate was placed on a microplate reader to detect the fluorescence value at 540/590 nm, where the value was read every 2 minutes and the detection was conducted continuously for 1 hour.
3.5 The Slope value within the detection time was calculated, and the 1% DMSO well was used as a control well to calculate a compound activation rate. Activation rate % = (Slopeofcompoundwell/Slopeofcontrolwell) × 100% [formula]
With the log value of the compound concentration as the X axis and the percentage activation rate as the Y axis, a dose-effect curve was fitted with the log(agonist) vs. response-variable slope of the analysis software GraphPad Prism 5, and the AC50 value of the activity of each compound against PKR was obtained. Y = min + (max−min)/(1+10^(∧)((LogAC50−X)×Hillslope)). [formula]

[1] = biological target: T1, PKR in ex vivo red blood cells from healthy individuals (Homo sapiens, UniProt P30613); assay: ex vivo pyruvate kinase (PKR) activity experiment, red blood cells of healthy individuals; format: cell-based; settings: 3 hours co-cultivation
T1 construct: endogenous in cells; host or cells: human red blood cells isolated from fresh peripheral blood of healthy individuals
Protocol: To test the effects of the compound of the present disclosure on PKR activation in ex vivo red blood cells from healthy individuals and patients with thalassemia.
• i. 5 g of glucose, 85 mg of adenine, and 2.625 g of mannitol were weighed and added into a 50 mL centrifuge tube. 40 mL of PBS was added to dissolve (sonicate for 30 minutes until completely dissolved). The solution was filtered through a 0.22 µm filter, then added to 460 mL of sterile PBS and mixed thoroughly.
• i. Fresh human peripheral blood was collected. K2EDTA was used as the anticoagulant. 1 part anticoagulant with 9 parts blood was mixed, then centrifuged at 500 g for 10 minutes at room temperature to remove the plasma. • ii. Packed red blood cells: 1.5 volumes of PBS were added, then centrifuged at 2000 ×g for 5 minutes at room temperature. After centrifugation, the supernatant was removed. This step was repeated twice. • iii. Diluted red blood cells: 1.5 volumes of PBS were added, then resuspended and mixed thoroughly. • iv. The diluted red blood cells were slowly added to 0.5 volume of 70% isotonic solution (e.g., 7.5 mL of diluted red blood cells + 3 mL of 70% isotonic solution Percoll) and centrifuged at 4000 ×g for 20 minutes at 4°C. • v. The supernatant was removed. The red blood cells at the bottom were washed once with 4-5 mL of PBS to elute the Percoll gel, and then centrifuged at 2000 ×g for 5 minutes at room temperature. • vi. The supernatant was removed. The red blood cells were counted and then diluted in AGAM medium containing 10% FBS to a density of 2 × 10^8 cells/mL for storage at 4°C.
i. The red blood cells were seeded into a 96-well plate at a uniform density of 1 × 10^7 cells/mL, with 100 µL per well. The test compounds (dissolved in DMSO) were diluted and added to the cell culture medium, resulting in final compound concentrations of 3000, 1000, 300, 100, 10, 3, and 1 nM (with 1% DMSO). The cells and compounds were co-cultivated for 3 hours in a 37°C incubator with 5% CO2. Subsequently, the plate was centrifuged at 2000 g for 20 minutes, and the supernatant was discarded. 100 µL of red blood cell lysis buffer was added to the cell pellet, vortexed for 20 minutes, and centrifuged at 4000 g for 5 minutes. The supernatant was collected for analysis. ii. The reaction system was prepared according to the kit instructions (shown as the table below), 10 µL of the reaction system was added to each well of a 384-well plate, and 10 µL of red blood cell lysis buffer was took and mixed well (20 µL reaction system).
iii. A black, transparent-bottomed 384-well plate was placed in a microplate reader to measure fluorescence at 540/590 nm. The fluorescence was read every 2 minutes for 1 hour.
i. The Slope value was calculated over the assay time. Compound activation percentage was calculated using the 1% DMSO well as the control well. Activation percentage = (Slope of compound well / Slope of control well) × 100% ii. Dose-response curve was fit using the logarithmic compound concentration on the X-axis and the percent activation percentage on the Y-axis, the log(agonist) vs. response - variable slope function in GraphPad Prism 5 was used to determine the AC50 value for each compound on PKR activity. Y = min + (max−min)/(1+10^(∧)((LogAC50−X)×Hillslope)). [formula] The PKR agonist effects of the compound of the present disclosure on ex vivo red blood cells from healthy individuals and thalassemia patients were determined using the above assay. The AC50 values measured on ex vivo red blood cells from healthy individuals are as follows (A represents 0-100 nM, B represents 101-300 nM, and C represents 300-1000 nM): […]

T1 sequence (P30613 whole entry): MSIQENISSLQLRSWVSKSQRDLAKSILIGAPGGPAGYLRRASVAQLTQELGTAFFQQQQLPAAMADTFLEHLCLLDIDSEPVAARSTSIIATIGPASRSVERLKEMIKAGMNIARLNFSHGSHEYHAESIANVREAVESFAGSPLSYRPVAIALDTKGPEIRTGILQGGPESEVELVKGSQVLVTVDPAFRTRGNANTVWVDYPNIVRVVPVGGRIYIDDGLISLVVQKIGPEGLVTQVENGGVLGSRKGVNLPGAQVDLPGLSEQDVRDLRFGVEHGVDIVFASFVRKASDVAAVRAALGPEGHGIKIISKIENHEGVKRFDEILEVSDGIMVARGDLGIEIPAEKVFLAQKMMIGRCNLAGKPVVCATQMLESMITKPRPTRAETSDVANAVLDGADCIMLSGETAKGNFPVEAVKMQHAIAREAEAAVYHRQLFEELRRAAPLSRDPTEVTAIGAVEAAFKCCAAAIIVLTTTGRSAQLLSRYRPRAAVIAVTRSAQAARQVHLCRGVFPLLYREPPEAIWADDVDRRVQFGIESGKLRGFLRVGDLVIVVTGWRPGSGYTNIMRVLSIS
Sequence of recombinant human PKR (P30613 whole entry): as above

Row | AC50 (recombinant human PKR) | AC50 [1] | Structure (SMILES)
1 | 0.3 to 1 µM | < 0.1 µM | NC(C(=O)N1CC(=C2CN(S(=O)(=O)c3ccc(OC(F)F)cc3)C2)C1)c1ccccc1 (centres unmarked) [Compound 21, 2-amino-1-(1'-((4-(difluoromethoxy)phenyl)sulfonyl)-1',4'-dihydro-2H,2'H-[3,3'-diazetidinylidene]-1 (4H)-yl)-2-phenylethan-1-one]
2 | < 0.1 µM | 0.3 to 1 µM | CNCC(C(=O)N1CC(=C2CN(S(=O)(=O)c3ccc4c(c3)OCCO4)C2)C1)c1cccc(Cl)c1 (centres unmarked) [Compound 26, 2-(3-chlorophenyl)-1-(1'-((2,3-dihydrobenzo[b][1,4]dioxin-6-yl)sulfonyl)-1',4'-dihydro-2H,2'H-[3,3'-diazetidinylidene]-1(4H)-yl)-3-(methylamino)propan-1-one]
3 | 0.3 to 1 µM | 0.3 to 1 µM | O=C([C@H](CO)c1ccccc1)N1CC(=C2CN(S(=O)(=O)c3ccc(-c4ncco4)c(F)c3)C2)C1 [Compound 27, (S)-1-(1'-((3-fluoro-4-(oxazol-2-yl)phenyl)sulfonyl)-1',4'-dihydro-2H,2'H-[3,3'-diazetidinylidene]-1(4 H)-yl)-3-hydroxy-2-phenylpropan-1-one]
4 | < 0.1 µM | < 0.1 µM | O=C(N1CC(=C2CN(S(=O)(=O)c3ccc4ncsc4c3)C2)C1)C1(c2ccccc2)CCOCC1 [Compound 29, (1'-(benzo[d]thiazol-6-ylsulfonyl)-1',4'-dihydro-2H,2'H-[3.3'-diazetidinylidene]-1(4H)-yl)(4-phenyltetrahydro-2H-pyran-4-yl)methanone]
5 | < 0.1 µM | < 0.1 µM | Cc1nc2ccc(S(=O)(=O)N3CC(=C4CN(C(=O)[C@H](CO)c5ccccc5)C4)C3)cc2s1 [Compound 35, (S)-3-hydroxy-1-(1'-((2-methylbenzo[d]thiazol-6-yl)sulfonyl)-1',4'-dihydro-2H,2'H-[3,3'-diazetidinylidene]-1(4H)-yl)-2-phenylpropan-1-one]
6 | < 0.1 µM | < 0.1 µM | CN1CCOc2ccc(S(=O)(=O)N3CC(=C4CN(C(=O)[C@H](CO)c5ccccc5)C4)C3)cc21 [Compound 39, (S)-3-hydroxy-1-(1'-((4-methyl-3,4-dihydro-2H-benzo[b][1,4]oxazin-6-yl)sulfonyl)-1',4'-dihydro-2H, 2'H-[3,3'-diazetidinylidene]-1(4H)-yl)-2-phenylpropan-1-one]
7 | 0.3 to 1 µM | 0.3 to 1 µM | O=C(Cc1ccccc1)N1CC(=C2CN(S(=O)(=O)c3ccc4ncsc4c3)C2)C1 [Compound 47, 1-(1'-(benzo[d]thiazol-6-ylsulfonyl)-1',4'-dihydro-2H,2'H-[3,3'-diazetidinylidene]-1(4H)-yl)-2-phenyl ethan-1-one]
8 | < 0.1 µM | < 0.1 µM | O=C(C(CO)c1ccc(F)cc1)N1CC(=C2CN(S(=O)(=O)c3ccc4ncsc4c3)C2)C1 [Compound 50, (S)-1-(1'-(benzo[d]thiazol-6-ylsulfonyl)-1',4'-dihydro-2H,2'H-[3,3'-diazetidinylidene]-1(4H)-yl)-2-(4-fluorophenyl)-3-hydroxypropan-1-one]
9 | 0.3 to 1 µM | 0.3 to 1 µM | O=C(c1c[nH]c2ccccc12)N1CC(=C2CN(S(=O)(=O)c3ccc4ncsc4c3)C2)C1 [Compound 52, (1'-(benzo[d]thiazol-6-ylsulfonyl)-1',4'-dihydro-2H,2'H-[3,3'-diazetidinylidene]-1(4H)-yl)(1H-indol-3-yl)methanone]
10 | 0.3 to 1 µM | 0.101 to 0.3 µM | COc1ccc(C(CO)C(=O)N2CC(=C3CN(S(=O)(=O)c4ccccn4)C3)C2)cc1 (centres unmarked) [Compound 53, 3-hydroxy-2-(4-methoxyphenyl)-1-(1'-(pyridin-2-ylsulfonyl)-1',4'-dihydro-2H,2'H-[3,3'-diazetidinylidene]-1(4H)-yl)propan-1-one]
11 | 0.3 to 1 µM | 0.3 to 1 µM | O=C(c1c[nH]c2ccccc12)N1CC(=C2CN(S(=O)(=O)c3ccccn3)C2)C1 [Compound 56, (1H-indol-3-yl)(1'-(pyridin-2-ylsulfonyl)-1',4'-dihydro-2H,2'H-[3,3'-diazetidinylidene]-1(4H)-yl)met hanone]
12 | 0.101 to 0.3 µM | < 0.1 µM | Cc1ccc(C(CO)C(=O)N2CC(=C3CN(S(=O)(=O)c4ccccn4)C3)C2)cc1 (centres unmarked) [Compound 57, 3-hydroxy-1-(1'-(pyridin-2-ylsulfonyl)-1',4'-dihydro-2H,2'H-[3,3'-diazetidinylidene]-1(4H)-yl)-2-(p-tolyl)propan-1-one]
13 | 0.101 to 0.3 µM | 0.101 to 0.3 µM | O=C(N1CC(=C2CN(S(=O)(=O)c3ccccn3)C2)C1)C1(c2ccccc2)CCOCC1 [Compound 58]
14 | 0.3 to 1 µM | 0.3 to 1 µM | O=C(C(CO)c1cccnc1)N1CC(=C2CN(S(=O)(=O)c3ccccn3)C2)C1 (centres unmarked) [Compound 60, 3-hydroxy-1-(1'-(pyridin-2-ylsulfonyl)-1',4'-dihydro-2H,2'H-[3,3'-diazetidinylidene]-1(4H)-yl)-2-(pyridin-3-yl)propan-1-one]
15 | 0.3 to 1 µM | 0.3 to 1 µM | CC(C)(O)C(C(=O)N1CC(=C2CN(S(=O)(=O)c3ccccn3)C2)C1)c1ccccc1 (centres unmarked) [Compound 62, 3-hydroxy-3-methyl-2-phenyl-1-(1'-(pyridin-2-ylsulfonyl)-1',4'-dihydro-2H,2'H-[3,3'-diazetidinylidene]-1(4H)-yl)butan-1-one]
16 | 0.3 to 1 µM | 0.3 to 1 µM | O=C(C1NCc2ccccc21)N1CC(=C2CN(S(=O)(=O)c3ccc4ncsc4c3)C2)C1 (centres unmarked) [Compound 64, (1'-(benzothiazol-6-ylsulfonyl)-1',4'-dihydro-2H,2'H-[3,3'-diazetidinylidene]-1(4H)-yl)(isoindolin-1-yl)methanone]
17 | < 0.1 µM | < 0.1 µM | COc1ccc(S(=O)(=O)N2CC(=C3CN(C(=O)[C@H](CO)c4ccccc4)C3)C2)nc1 [Compound 67, (S)-3-hydroxy-1-(1'-((5-methoxypyridin-2-yl)sulfonyl)-1',4'-dihydro-2H,2'H-[3,3'-diazetidinylidene]-1(4H)-yl)-2-phenylpropan-1-one]
18 | < 0.1 µM | < 0.1 µM | CCOc1ccc(S(=O)(=O)N2CC(=C3CN(C(=O)[C@H](CO)c4ccccc4)C3)C2)nc1 [Compound 72, (S)-1-(1'-((5-ethoxypyridin-2-yl)sulfonyl)-1',4'-dihydro-2H,2'H-[3,3'-diazetidinylidene]-1(4H)-yl)-3-hydroxy-2-phenylpropan-1-one]
19 | 0.101 to 0.3 µM | 0.101 to 0.3 µM | O=C(C(CF)c1ccccc1)N1CC(=C2CN(S(=O)(=O)c3ccccn3)C2)C1 (centres unmarked) [Compound 73, 3-fluoro-2-phenyl-1-(1'-(pyridin-2-ylsulfonyl)-1',4'-dihydro-2H,2'H-[3,3'-diazetidinylidene]-1(4H)-yl)propan-1-one]
